Source: patent publication US4877795A, “4H-quinolizin-4-one compounds useful for the treatment of allergic bronchial asthma, allergic rhinitis atropic dermatitis and the like” (Kissei Pharmaceutical Co., Ltd., priority 1987, dated 1989)

How the values were obtained:
[1] = tested on: IgE; assay: Determination of Igs produced in in vitro culture: inhibition of IgE secreted by spleen cells (adoptive secondary immune response to DNP-As), ELISA; type: cell-based, BALB/c mice; conditions: 4 days culture; for inhibition at 2.5 µg/mL: 2.5 μg/ml; for inhibition at 5 µg/mL: 5.0 μg/ml
Experimental: (§1) Determination of Igs produced in in vitro culture
(§2) BALB/c mice were immunized intraperitoneally with 5 μg of DNP-As adsorbed in 4 mg aluminum hydroxide gel. 4 weeks after the immunization, the spleens were excised from the mice and 5×10^7 spleen cells were transferred intravenously into the recipient mice which had been exposed to 600 rad of X-ray irradiation. Immediately after cell transfer, the recipients were then immunized intraperitoneally with 5 μg of DNP-As adsorbed in 4 mg aluminum hydroxide gel to induce adoptive secondary immune response. Further 4 weeks after the immunization of recipients, the spleens were excised from them and the spleen cell suspensions 5×10^6 cells/ml were cultured with or without a compound to be tested in 96-well micro plates at 37° C. for 4 days. IgE and IgG secreted into the culture supernatant was each determined correspondingly by ELISA and the inhibitory effect was calculated according to the following equation. [formula]

[2] = tested on: IgG; assay: Determination of Igs produced in in vitro culture: inhibition of IgG secreted by spleen cells (adoptive secondary immune response to DNP-As), ELISA; type: cell-based, BALB/c mice; conditions: 4 days culture; for inhibition at 2.5 µg/mL: 2.5 μg/ml; for inhibition at 5 µg/mL: 5.0 μg/ml; for Inhibition % of IgG / inhibition at 1 µg/mL: 1.0 μg/ml
Experimental: as §1, §2

CSc1c(C#N)c(=O)n2ccccc2c1C(=O)N1CCC2CCCCC21 (single isomer, unassigned) [S-85B, 3-Cyano-2-methylthio-1-(perhydroindol-1-yl-carbonyl)-4H-quinolizin-4-one]
inhibition at 2.5 µg/mL ([1]; Mus musculus, 96 h): 39% | inhibition at 2.5 µg/mL ([2]; Mus musculus, 96 h): 19%

C=C(C)CSc1c(C#N)c(=O)n2ccccc2c1C(=O)OCC [S-56]
inhibition at 5 µg/mL ([1]; Mus musculus, 96 h): 70% | inhibition at 5 µg/mL ([2]; Mus musculus, 96 h): 30%

CCCCCCN(CCCCCC)C(=O)c1c(SC)c(C#N)c(=O)n2ccccc12 [S-65, 3-Cyano-N,N-dihexyl-2-methylthio-4H-quinolizin-4-one-1-carboxamide]
inhibition at 2.5 µg/mL ([1]; Mus musculus, 96 h): 87% | inhibition at 2.5 µg/mL ([2]; Mus musculus, 96 h): 40%

CSc1c(C#N)c(=O)n2ccccc2c1C(=O)N1CCC(Cc2ccccc2)CC1 (single isomer, unassigned) [S-82B, 1-(4-Benzylpiperidinocarbonyl)-3-cyano-2-methylthio-4H-quinolizin-4-one]
inhibition at 2.5 µg/mL ([1]; Mus musculus, 96 h): 63% | inhibition at 2.5 µg/mL ([2]; Mus musculus, 96 h): 8%

CSc1c(C#N)c(=O)n2ccccc2c1C(=O)N(CCNc1ccccc1)c1ccccc1 [S-67, 3-Cyano-2-methylthio-N-phenyl-N-(2-phenylaminoethyl)-4H-quinolizin-4-one-1-carboxamide]
inhibition at 2.5 µg/mL ([1]; Mus musculus, 96 h): 68% | inhibition at 2.5 µg/mL ([2]; Mus musculus, 96 h): 46%

CCCOC(=O)c1c(SC)c(C#N)c(=O)n2ccccc12 [S-7, Propyl 3-cyano-2-methylthio-4H-quinolizin-4-one-1-carboxylate]
inhibition at 40 µg/mL ([1]; Mus musculus, 96 h, 40.0 μg/ml): 52% | inhibition at 40 µg/mL ([2]; Mus musculus, 96 h, 40.0 μg/ml): 24%

CSc1c(C#N)c(=O)n2cccc(C)c2c1C(=O)N1CCC(c2ccccc2)CC1 (single isomer, unassigned) [S-81A, 3-Cyano-9-methyl-2methylthio-1-(4-phenylpiperidinocarbonyl)-4H-quinolizin-4-one]
inhibition at 1 µg/mL ([1]; Mus musculus, 96 h, 1.0 μg/ml): 46% | Inhibition % of IgG [2]: 17%

CSc1c(C#N)c(=O)n2ccccc2c1C(=O)OCCSc1ccccc1 [S-55, 2'-Phenylthioethyl 3-cyano-2-methylthio-4H-quinolizin-4-one-1-carboxylate]
inhibition at 0.25 µg/mL ([1]; Mus musculus, 96 h, 0.25 μg/ml): 51% | inhibition at 0.25 µg/mL ([2]; Mus musculus, 96 h, 0.25 μg/ml): 29%

CSc1c(C#N)c(=O)n2ccccc2c1C(=O)OCc1cccc2ccccc12 [S-42, 1'-Naphthylmethyl 3-cyano-2-methylthio-4H-quinolizin-4-one-1-carboxylate]
inhibition at 1 µg/mL ([1]; Mus musculus, 96 h, 1.0 μg/ml): 75% | inhibition at 1 µg/mL ([2]; Mus musculus, 96 h): 43%

CSc1c(C#N)c(=O)n2ccccc2c1C(=O)Cc1cccc(C)c1 [S-97, 3-Cyano-1-(3-methylphenylacetyl)-2-methylthio-4H-quinolizin-4-one]
inhibition at 2.5 µg/mL ([1]; Mus musculus, 96 h): 46% | inhibition at 2.5 µg/mL ([2]; Mus musculus, 96 h): 18%

CSc1c(C#N)c(=O)n2ccc(C)cc2c1C(=O)OCCCc1ccccc1 [S-51, 3'-Phenylpropyl 3-cyano-8methyl-2-methylthio-4H-quinolizin-4-one-1-carboxylate]
inhibition at 1 µg/mL ([1]; Mus musculus, 96 h, 1.0 μg/ml): 65% | inhibition at 1 µg/mL ([2]; Mus musculus, 96 h): 43%

N#Cc1c(SCc2ccccc2)c(C(=O)N2CCC(Cc3ccccc3)CC2)c2ccccn2c1=O (single isomer, unassigned) [S-84B, 1-(4-Benzylpiperidinocarbonyl)-2-benzylthio-3-cyano-4H-quinolizin-4-one]
Inhibition % of IgE ([1]; 1.0 μg/ml): 58% | Inhibition % of IgG [2]: 32%

CCCC(=O)c1c(SC)c(C#N)c(=O)n2ccccc12 [S-93, 1-Butyryl-3-cyano-2-methylthio-4H-quinolizin-4-one]
inhibition at 10 µg/mL ([1]; Mus musculus, 96 h, 10.0 μg/ml): 62% | inhibition at 10 µg/mL ([2]; Mus musculus, 96 h, 10.0 μg/ml): 31%

CSc1c(C#N)c(=O)n2ccccc2c1C(=O)OCCC(C)C [S-11, Isopentyl 3-cyano-2-methylthio-4H-quinolizin-4-one-1-carboxylate]
inhibition at 5 µg/mL ([1]; Mus musculus, 96 h): 66% | inhibition at 5 µg/mL ([2]; Mus musculus, 96 h): 30%

CSc1c(C#N)c(=O)n2ccc(C)cc2c1C(=O)OC1CCCCC1 [S-18, Cyclohexyl 3-cyano-8-methyl-2-methylthio-4H-quinolizin-4-one-1-carboxylate]
inhibition at 2.5 µg/mL ([1]; Mus musculus, 96 h): 54% | inhibition at 2.5 µg/mL ([2]; Mus musculus, 96 h): 34%

C=CCN(C(=O)c1c(SC)c(C#N)c(=O)n2ccccc12)C1CCCCC1 [S-70, N-Allyl-3-cyano-N-cyclohexyl-2-methylthio-4H-quinolizin-4-one-1-carboxamide]
inhibition at 5 µg/mL ([1]; Mus musculus, 96 h): 65% | inhibition at 5 µg/mL ([2]; Mus musculus, 96 h): 32%
